Reference: patent US8420653B2, “Pyrimidine compounds and their uses” (Orchid Chemicals & Pharmaceuticals Limited, priority 2008, dated 2013)

Experiments:
PDE4 = test system: T1, PDE4; experiment: PDE4 activity (source human U937 cells); format: biochemical; conditions: for PDE4 inhibition at 10 μM (%): source human U937 cells; for PDE4 at 10 μm: Table XVb summary
T1 construct: other: 10 μM, source human U937 cells; PDE4 at 10 μm
Protocol: PDE4 inhibition was measured by following a literature assay procedure (Cortizo J et al., Br J. Pharmacol., 1993, 108: 562-568. The assay method involves the following conditions.
Substrate: 1.01 μM [^3H] camp+camp
Pre-Incubation Time/Temperature: 15 minutes at 25° C.
Incubation Time/Temperature. 20 minutes at 25° C.
Incubation buffer: 50 mM Tris-HCl, pH 7.5, 5 mM MgCl2
Quantitation method: Quantitation of [^3H] Adenosine
Significance criteria: ≧50% of max stimulation or inhibition

TNF-α = experiment: LPS induced sepsis for measurement of TNF-α inhibition in mice; format: in vivo; conditions: mice; for inhibition in vivo at 50 mg/kg: Mus musculus, 1.5 h, oral, serum 90 minutes after LPS; for TNF -α in vivo (mice): Table XVa summary, unit assumed
Protocol: LPS Induced Sepsis for Measurement of TNF-α Inhibition in Mice
The LPS induced sepsis model in mice was performed as described by Les sekut et al (J Lab Clin Med 1994; 124, 813-20). Female Swiss albino mice were selected and the body weights were equivalent within each group. The mice were fasted for 20 hours with free access to water. The mice were dosed orally with the test compound suspended in vehicle containing 0.5% Tween 80 in 0.25% Carboxy-methylcellulose sodium salt. The control mice were administered the vehicle alone. After 30 minutes of oral dosing, mice were injected with 500 μg of Lipopolysaccharide (Escherichia coli, LPS: B4 from Siga) in phosphate buffer saline solution into the intraperitoneal cavity of the mice. After 90 minutes of LPS administration mice were bled via retro-orbital sinus puncture. Blood samples were stored overnight at 4° C. Serum samples were collected by centrifuging the samples at 4000 rpm for 15 minutes at 4° C. Immediately the serum samples were analyzed for TNF-α levels using commercially available mouse TNF-α ELISA kit (Amersham Biosciences) and assay was performed by the manufacturer instruction.
ED50 Measurement of TNF Alpha Inhibition in Mice Sepsis Model

IL-1β = IL-1β inhibition (Table XVa); format: cell-based; conditions: Table XVa summary
[1] = target: T2, purified recombinant COX-2 (Homo sapiens, UniProt P35354); experiment: COX-2 enzyme based assay; format: biochemical; conditions: for inhibition at 10 µM: read-out: % Inhibition in rEnzyme Assay COX-2; for COX2 at 10 μm: Table XVa summary
T2 sequence (P35354 18-604): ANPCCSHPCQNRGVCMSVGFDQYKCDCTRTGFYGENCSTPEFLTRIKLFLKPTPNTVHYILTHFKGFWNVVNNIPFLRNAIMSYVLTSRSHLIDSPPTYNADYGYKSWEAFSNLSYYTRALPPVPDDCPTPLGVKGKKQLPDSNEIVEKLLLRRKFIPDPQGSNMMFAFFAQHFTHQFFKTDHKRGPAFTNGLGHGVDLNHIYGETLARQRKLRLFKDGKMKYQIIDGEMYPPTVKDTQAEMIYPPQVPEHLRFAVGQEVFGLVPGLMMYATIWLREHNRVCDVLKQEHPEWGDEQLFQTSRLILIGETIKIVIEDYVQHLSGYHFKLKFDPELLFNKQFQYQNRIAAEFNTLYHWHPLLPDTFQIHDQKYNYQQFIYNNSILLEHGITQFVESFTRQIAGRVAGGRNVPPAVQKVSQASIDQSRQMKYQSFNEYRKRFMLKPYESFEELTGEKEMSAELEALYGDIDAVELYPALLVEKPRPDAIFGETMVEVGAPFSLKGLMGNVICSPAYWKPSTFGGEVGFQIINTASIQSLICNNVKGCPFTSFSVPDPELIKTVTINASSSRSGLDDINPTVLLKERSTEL
Protocol: COX-1 and COX-2 enzyme based assays were carried out to check the inhibitory potential of the test compounds on the production of prostaglandin by purified recombinant COX-1/COX-2 enzyme (Proc. Nat. Acad. Sci. USA, 88, 2692-2696, 1991; J. Clin. Immunoassay 15, 116-120, 1992). In this assay, the potential of the test compound to inhibit the production of prostaglandin either by COX-1 or COX-2 from arachidonic acid (substrate) was measured. This was an enzyme based in-vitro assay to evaluate selective COX inhibition with good reproducibility.
Arachidonic acid was converted to PGH2 (Intermediate product) by COX1/COX-2 in the presence or absence of the test compound. The reaction was carried out at 37° C. and after 2 minutes it was stopped by adding 1M HCl. Intermediate product PGH2 was converted to a stable prostanoid product PGF2α by SnCl2 reduction. The amount of PGF2α produced in the reaction was inversely proportional to the COX inhibitory potential of the test compound. The prostanoid product was quantified via enzyme immunoassay (EIA) using a broadly specific antibody that binds to all the major forms of prostaglandin, using Cayman ELISA kit as per the procedure outlined by the manufacturer (Cayman Chemicals, Ann Arbor, USA).

Row | SMILES | PDE4 inhibition at 10 μM (%) (PDE4) | PDE4 at 10 μm (PDE4) | inhibition in vivo at 50 mg/kg (TNF-α) | TNF -α in vivo (mice) (TNF-α) | IL-1β at 10 μm (IL-1β) | inhibition at 10 µM [1] | COX2 at 10 μm [1]
1 | CCOC(=O)C1CCN(c2nc(C(F)(F)F)nc(-c3ccc(F)cc3)c2-c2cccc(S(N)(=O)=O)c2)CC1 [Example 59, Ethyl-1-[5-(3-aminosulfonylphenyl)-6-(4-fluorophenyl)-2-(trifluoromethyl)pyrimidin-4-yl]piperidine-4-carboxylate] | 93% | 87 | 87.2% | 82% | 29 | 31% | 31
2 | NS(=O)(=O)c1cccc(-c2c(-c3ccc(F)cc3)nc(C(F)(F)F)nc2-n2ccnc2)c1 [Example 80, 3-[4-(4-Fluorophenyl)-6-(1H-imidazol-1-yl)-2-(trifluoromethyl)pyrimidin-5-yl]benzenesulfonamide] | 87% | 93 | 82.8% | 87% | 36 | 20% | 20
